From patent publication US8802597B2, “Herbicidal pyrimidines” (E I du Pont de Nemours and Company, priority 2003, dated 2014)
Read-outs that look alike come from different tables or passages of the source.

How the values were obtained:
[1] = test system: windgrass (Apera spica-venti); test: Test C postemergence; assay type: in vivo
How it was run: (§1)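 Test compounds, formulated in a non-phytotoxic solvent mix with surfactant, were applied to freshly planted seeds and, at the same time, to emerged plants at 1- to 4-leaf stage (2 to 18 cm). After 12 to 14 days in the greenhouse, response was scored visually versus controls, 0 = no effect, 100 = complete control.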

[2] = test system: winter barley (Hordeum vulgare); test: Test C postemergence; assay type: in vivo; details: for Plant response rating, Barley: scale 0 to 100
How it was run: as §1

[3] = test system: green foxtail (Setaria viridis); test: Test C postemergence; assay type: in vivo
How it was run: as §1

[4] = test system: wheat (Triticum aestivum); test: Test C postemergence; assay type: in vivo
How it was run: as §1

[5] = test system: downy brome (Bromus tectorum); test: Test C postemergence; assay type: in vivo; details: for Plant response rating, Bromegrass, Downy: scale 0 to 100
How it was run: as §1

[6] = test system: blackgrass (Alopecurus myosuroides); test: Test C postemergence; assay type: in vivo; details: for Plant response rating, Blackgrass: scale 0 to 100
How it was run: as §1

[7] = test system: Italian ryegrass (Lolium multiflorum); test: Test C postemergence; assay type: in vivo
How it was run: as §1

wild oat (Avena fatua) = test: Test C postemergence; assay type: in vivo
How it was run: as §1

[8] = test system: canarygrass (Phalaris minor); test: Test C postemergence; assay type: in vivo; details: for Plant response rating, Canarygrass: scale 0 to 100
How it was run: as §1

[9] = test system: yellow nutsedge (Cyperus esculentus); test: Test C pre/postemergence; assay type: in vivo; details: Cyperus; for pest or weed control at 31 g/ha: 31 g ai/ha; for pest or weed control at 62 g/ha: 62 g ai/ha; for pest or weed control at 125 g/ha: 125 g ai/ha; for pest or weed control at 250 g/ha: 250 g ai/ha
How it was run: as §1

[10] = test system: crabgrass (Digitaria sanguinalis); test: Test C pre/postemergence; assay type: in vivo; details: Digitaria sanguinalis; for pest or weed control at 31 g/ha: 31 g ai/ha; for pest or weed control at 62 g/ha: 62 g ai/ha; for pest or weed control at 125 g/ha: 125 g ai/ha; for pest or weed control at 250 g/ha: 250 g ai/ha
How it was run: as §1

soybean (Glycine max) = test: Test C pre/postemergence; assay type: in vivo; details: Glycine max; for plant injury at 31 g/ha: 31 g ai/ha; for plant injury at 62 g/ha: 62 g ai/ha; for plant injury at 125 g/ha: 125 g ai/ha; for plant injury at 250 g/ha: 250 g ai/ha
How it was run: as §1

[11] = post-emergence, Postemergence, scale 0 to 100 (0 no effect, 100 complete control), read-out: Nutsedge, Yellow plant response rating
[12] = pre-emergence, Preemergence, scale 0 to 100, 0 no effect, 100 complete control, read-out: Plant response rating, Nutsedge, Yellow
[13] = pre-emergence, Preemergence, scale 0 to 100, read-out: Plant response rating, Nutsedge, Yellow
[14] = post-emergence, Postemergence, scale 0 to 100 (0 no effect, 100 complete control), read-out: Crabgrass plant response rating
[15] = pre-emergence, Preemergence, scale 0 to 100, 0 no effect, 100 complete control, read-out: Plant response rating, Crabgrass
[16] = pre-emergence, Preemergence, scale 0 to 100, read-out: Plant response rating, Crabgrass
[17] = post-emergence, Postemergence, scale 0 to 100 (0 no effect, 100 complete control), read-out: Soybean plant response rating
[18] = pre-emergence, Preemergence, scale 0 to 100, 0 no effect, 100 complete control, read-out: Plant response rating, Soybean
[19] = pre-emergence, Preemergence, scale 0 to 100, read-out: Plant response rating, Soybean

For `COC(=O)c1nc(C(C)C)nc(N)c1Br` [Compound 3], the “Plant response rating (scale of 0 to 100), Windgrass” value ([1]; 31 g ai/ha) was 10, the “Plant response rating, Windgrass” value ([1]; 250 g ai/ha, scale 0 to 100) was 30 and the pest or weed control at 62 g/ha ([1]; Apera spica-venti, post-emergence, 62 g ai/ha, scale 0 to 100 (0 no effect, 100 complete control), read-out: Windgrass plant response rating) was 30%. The pest or weed control at 125 g/ha ([1]; Apera spica-venti, post-emergence, 125 g ai/ha, scale 0 to 100 (0 no effect, 100 complete control), read-out: Windgrass plant response rating) was 30%, the “Plant response rating (scale of 0 to 100), Barley” value ([2]; 31 g ai/ha) was 0 and the “Plant response rating, Barley” value ([2]; 125 g ai/ha) was 0. For the same molecule, the “Plant response rating, Barley” value ([2]; 250 g ai/ha) was 30, the plant injury at 62 g/ha ([2]; Hordeum vulgare, post-emergence, 62 g ai/ha, scale 0 to 100 (0 no effect, 100 complete control), read-out: Barley plant response rating) was 0% and the “Plant response rating (scale of 0 to 100), Foxtail, Green” value ([3]; 31 g ai/ha) was 20. For the same molecule, the “Plant response rating, Foxtail, Green” value ([3]; 250 g ai/ha, scale 0 to 100) was 35, the pest or weed control at 62 g/ha ([3]; Setaria viridis, post-emergence, 62 g ai/ha, scale 0 to 100 (0 no effect, 100 complete control), read-out: Foxtail, Green plant response rating) was 30% and the pest or weed control at 125 g/ha ([3]; Setaria viridis, post-emergence, 125 g ai/ha, scale 0 to 100 (0 no effect, 100 complete control), read-out: Foxtail, Green plant response rating) was 35%. For the same molecule, the “Plant response rating (scale of 0 to 100), Wheat” value ([4]; 31 g ai/ha) was 0, the “Plant response rating, Wheat” value ([4]; 250 g ai/ha, scale 0 to 100) was 10 and the plant injury at 62 g/ha ([4]; Triticum aestivum, post-emergence, 62 g ai/ha, scale 0 to 100 (0 no effect, 100 complete control), read-out: Wheat plant response rating) was 0%. The plant injury at 125 g/ha ([4]; Triticum aestivum, post-emergence, 125 g ai/ha, scale 0 to 100 (0 no effect, 100 complete control), read-out: Wheat plant response rating) was 0%, the “Plant response rating (scale of 0 to 100), Bromegrass, Downy” value ([5]; 31 g ai/ha) was 20 and the “Plant response rating, Bromegrass, Downy” value ([5]; 125 g ai/ha) was 20. For the same molecule, the “Plant response rating, Bromegrass, Downy” value ([5]; 250 g ai/ha) was 20, the pest or weed control at 62 g/ha ([5]; Bromus tectorum, post-emergence, 62 g ai/ha, scale 0 to 100 (0 no effect, 100 complete control), read-out: Bromegrass, Downy plant response rating) was 20% and the “Plant response rating (scale of 0 to 100), Blackgrass” value ([6]; 31 g ai/ha) was 0. The “Plant response rating, Blackgrass” value ([6]; 125 g ai/ha) was 0, the “Plant response rating, Blackgrass” value ([6]; 250 g ai/ha) was 0 and the pest or weed control at 62 g/ha ([6]; Alopecurus myosuroides, post-emergence, 62 g ai/ha, scale 0 to 100 (0 no effect, 100 complete control), read-out: Blackgrass plant response rating) was 0%. The “Plant response rating (scale of 0 to 100), Ryegrass, Italian” value ([7]; 31 g ai/ha) was 35, the “Plant response rating, Ryegrass, Italian” value ([7]; 250 g ai/ha, scale 0 to 100) was 35 and the pest or weed control at 62 g/ha ([7]; Lolium multiflorum, post-emergence, 62 g ai/ha, scale 0 to 100 (0 no effect, 100 complete control), read-out: Ryegrass, Italian plant response rating) was 35%. For the same molecule, the pest or weed control at 125 g/ha ([7]; Lolium multiflorum, post-emergence, 125 g ai/ha, scale 0 to 100 (0 no effect, 100 complete control), read-out: Ryegrass, Italian plant response rating) was 35%, the “Plant response rating (scale of 0 to 100), Oat, Wild” value (wild oat (Avena fatua); 31 g ai/ha) was 30 and the “Plant response rating, Oat, Wild” value (wild oat (Avena fatua); 250 g ai/ha, scale 0 to 100) was 40. For the same molecule, the pest or weed control at 62 g/ha (wild oat (Avena fatua); Avena fatua, post-emergence, 62 g ai/ha, scale 0 to 100 (0 no effect, 100 complete control), read-out: Oat, Wild plant response rating) was 30%, the pest or weed control at 125 g/ha (wild oat (Avena fatua); Avena fatua, post-emergence, 125 g ai/ha, scale 0 to 100 (0 no effect, 100 complete control), read-out: Oat, Wild plant response rating) was 40% and the “Plant response rating (scale of 0 to 100), Canarygrass” value ([8]; 31 g ai/ha) was 10. The “Plant response rating, Canarygrass” value ([8]; 125 g ai/ha) was 10, the “Plant response rating, Canarygrass” value ([8]; 250 g ai/ha) was 10 and the pest or weed control at 62 g/ha ([8]; Phalaris minor, post-emergence, 62 g ai/ha, scale 0 to 100 (0 no effect, 100 complete control), read-out: Canarygrass plant response rating) was 10%. For the same molecule, the pest or weed control at 31 g/ha ([9]; post-emergence, Postemergence, read-out: Plant response rating (scale of 0 to 100), Nutsedge, Yellow) was 0%, the pest or weed control at 62 g/ha [9, 11] was 0% and the pest or weed control at 125 g/ha [9, 11] was 0%. For the same molecule, the pest or weed control at 250 g/ha ([9]; post-emergence, Postemergence, scale 0 to 100, read-out: Plant response rating, Nutsedge, Yellow) was 0%, the pest or weed control at 31 g/ha [9, 12] was 0% and the pest or weed control at 62 g/ha [9, 12] was 0%. It also gave a pest or weed control at 125 g/ha [9, 13] of 0%, a pest or weed control at 250 g/ha [9, 13] of 0% and a pest or weed control at 31 g/ha ([10]; post-emergence, Postemergence, read-out: Plant response rating (scale of 0 to 100), Crabgrass) of 0%. For the same molecule, the pest or weed control at 62 g/ha [10, 14] was 0%, the pest or weed control at 125 g/ha [10, 14] was 0% and the pest or weed control at 250 g/ha ([10]; post-emergence, Postemergence, scale 0 to 100, read-out: Plant response rating, Crabgrass) was 0%. It also gave a pest or weed control at 31 g/ha [10, 15] of 0%, a pest or weed control at 62 g/ha [10, 15] of 0% and a pest or weed control at 125 g/ha [10, 16] of 0%. The pest or weed control at 250 g/ha [10, 16] was 0%, the plant injury at 31 g/ha (soybean (Glycine max); post-emergence, Postemergence, read-out: Plant response rating (scale of 0 to 100), Soybean) was 60% and the plant injury at 62 g/ha (soybean (Glycine max); [17]) was 75%. The plant injury at 125 g/ha (soybean (Glycine max); [17]) was 90%, the plant injury at 250 g/ha (soybean (Glycine max); post-emergence, Postemergence, scale 0 to 100, read-out: Plant response rating, Soybean) was 95% and the plant injury at 31 g/ha (soybean (Glycine max); [18]) was 0%. It also gave a plant injury at 62 g/ha (soybean (Glycine max); [18]) of 0%, a plant injury at 125 g/ha (soybean (Glycine max); [19]) of 15% and a plant injury at 250 g/ha (soybean (Glycine max); [19]) of 20%. For the same molecule, the melting point was 107 to 109 °C.
